Values quoted from earlier work in patent publication US5534537A, “Prodrugs of inhibitors of farnesyl-protein transferase” (Merck & Co., Inc., priority 1995, dated 1996).

System: farnesyl-protein transferase
Details: via inhibition of HMG-CoA reductase, literature (Hancock et al.; Casey et al.; Schafer et al.)

SMILES	Indirect inhibition of farnesyl-protein transferase in vivo
CC[C@H](C)C(=O)O[C@H]1CCC=C2C=C[C@H](C)[C@H](CC[C@@H]3C[C@@H](O)CC(=O)O3)[C@H]21 [compactin]	Indirect inhibition
CC[C@H](C)C(=O)O[C@H]1C[C@@H](C)C=C2C=C[C@H](C)[C@H](CC[C@@H]3C[C@@H](O)CC(=O)O3)[C@H]21 [lovastatin]	Indirect inhibition
